Tests used:
Test in all cases: KinaseProfiler
Assay type in all cases: biochemical
Conditions in all cases: 10 μM, ATP near Km
mTOR/FKBP12 = biological target: T1, mTOR/FKBP12 (Homo sapiens, UniProt P42345)
T1 construct: purchased Millipore, Inc. (KinaseProfiler service)
Experimental: (§1) A representative compound (Example 15) of the invention was tested for off-target kinase activity at a concentration of 10 μM by Millipore, Inc. in their KinaseProfiler™ service against all the kinases available in their full kinase panel. The compound was run in duplicate at a concentration of ATP near the Km for each individual kinase according to Millipore's specifications. The results are shown in Table B. Data are reported as percent of control (POC) and are the average of the two replicates.

NEK2 = biological target: T2, NEK2 (Homo sapiens, UniProt P51955)
T2 construct: purchased Millipore, Inc. (KinaseProfiler service)
Experimental: as §1

p38alpha = biological target: T3, p38alpha (Homo sapiens, UniProt Q16539)
T3 construct: purchased Millipore, Inc. (KinaseProfiler service)
Experimental: as §1

TSSK2 = biological target: T4, TSSK2 (Homo sapiens, UniProt Q96PF2)
T4 construct: purchased Millipore, Inc. (KinaseProfiler service)
Experimental: as §1

CK1gamma1 = biological target: T5, CK1gamma1 (Homo sapiens, UniProt Q9HCP0)
T5 construct: purchased Millipore, Inc. (KinaseProfiler service)
Experimental: as §1

HIPK3 = biological target: T6, HIPK3 (Homo sapiens, UniProt Q9H422)
T6 construct: purchased Millipore, Inc. (KinaseProfiler service)
Experimental: as §1

PAK2 = biological target: T7, PAK2 (Homo sapiens, UniProt Q13177)
T7 construct: purchased Millipore, Inc. (KinaseProfiler service)
Experimental: as §1

Plk1 = biological target: T8, Plk1 (Homo sapiens, UniProt P53350)
T8 construct: purchased Millipore, Inc. (KinaseProfiler service)
Experimental: as §1

Pim-2 = biological target: T9, Pim-2 (Homo sapiens, UniProt Q9P1W9)
T9 construct: purchased Millipore, Inc. (KinaseProfiler service)
Experimental: as §1

EphA3 = biological target: T10, EphA3 (Homo sapiens, UniProt P29320)
T10 construct: purchased Millipore, Inc. (KinaseProfiler service)
Experimental: as §1

CDK5/p35 = biological target: T11, CDK5/p35 (Homo sapiens, UniProt Q00535)
T11 construct: purchased Millipore, Inc. (KinaseProfiler service)
Experimental: as §1

DAPK1 = biological target: T12, DAPK1 (Homo sapiens, UniProt P53355)
T12 construct: purchased Millipore, Inc. (KinaseProfiler service)
Experimental: as §1

p70S6K = biological target: T13, p70S6K (Homo sapiens, UniProt P23443)
T13 construct: purchased Millipore, Inc. (KinaseProfiler service)
Experimental: as §1

WNK2 = biological target: T14, WNK2 (Homo sapiens, UniProt Q9Y3S1)
T14 construct: purchased Millipore, Inc. (KinaseProfiler service)
Experimental: as §1

ULK2 = biological target: T15, ULK2 (Homo sapiens, UniProt Q8IYT8)
T15 construct: purchased Millipore, Inc. (KinaseProfiler service)
Experimental: as §1

CDK3/cyclinE = biological target: T16, CDK3/cyclinE (Homo sapiens, UniProt Q00526)
T16 construct: purchased Millipore, Inc. (KinaseProfiler service)
Experimental: as §1

MKK6 = biological target: T17, MKK6 (Homo sapiens, UniProt P52564)
T17 construct: purchased Millipore, Inc. (KinaseProfiler service)
Experimental: as §1

DAPK3 = biological target: T18, DAPK3 (Homo sapiens, UniProt O43293)
T18 construct: purchased Millipore, Inc. (KinaseProfiler service)
Experimental: as §1

CLK3 = biological target: T19, CLK3 (Homo sapiens, UniProt P49761)
T19 construct: purchased Millipore, Inc. (KinaseProfiler service)
Experimental: as §1

IRAK1 = biological target: T20, IRAK1 (Homo sapiens, UniProt P51617)
T20 construct: purchased Millipore, Inc. (KinaseProfiler service)
Experimental: as §1

KDR = biological target: T21, KDR (Homo sapiens, UniProt P35968)
T21 construct: purchased Millipore, Inc. (KinaseProfiler service)
Experimental: as §1

TAO1 = biological target: T22, TAO1 (Homo sapiens, UniProt Q7L7X3)
T22 construct: purchased Millipore, Inc. (KinaseProfiler service)
Experimental: as §1

IKKbeta = biological target: T23, IKKbeta (Homo sapiens, UniProt O14920)
T23 construct: purchased Millipore, Inc. (KinaseProfiler service)
Experimental: as §1

GSK3beta = biological target: T24, GSK3beta (Homo sapiens, UniProt P49841)
T24 construct: purchased Millipore, Inc. (KinaseProfiler service)
Experimental: as §1

Tie2 = biological target: T25, Tie2 (Homo sapiens, UniProt Q02763)
T25 construct: purchased Millipore, Inc. (KinaseProfiler service)
Experimental: as §1

STK33 = biological target: T26, STK33 (Homo sapiens, UniProt Q9BYT3)
T26 construct: purchased Millipore, Inc. (KinaseProfiler service)
Experimental: as §1

CAMK2g = biological target: T27, CAMK2g (Homo sapiens, UniProt Q13555)
T27 construct: purchased Millipore (KinaseProfiler service)
Experimental: as §1

ALK4 = biological target: T28, ALK4 (Homo sapiens, UniProt P36896)
T28 construct: purchased Millipore (KinaseProfiler service)
Experimental: as §1

HIPK1 = biological target: T29, HIPK1 (Homo sapiens, UniProt Q86Z02)
T29 construct: purchased Millipore, Inc. (KinaseProfiler service)
Experimental: as §1

PAK6 = biological target: T30, PAK6 (Homo sapiens, UniProt Q9NQU5)
T30 construct: purchased Millipore, Inc. (KinaseProfiler service)
Experimental: as §1

Fes = biological target: T31, Fes (Homo sapiens, UniProt P07332)
T31 construct: purchased Millipore, Inc. (KinaseProfiler service)
Experimental: as §1

EphB4 = biological target: T32, EphB4 (Homo sapiens, UniProt P54760)
T32 construct: purchased Millipore, Inc. (KinaseProfiler service)
Experimental: as §1

CDK7/cyclinH/MAT1 = biological target: T33, CDK7/cyclinH/MAT1 (Homo sapiens, UniProt P50613)
T33 construct: purchased Millipore, Inc. (KinaseProfiler service)
Experimental: as §1

Lyn = biological target: T34, Lyn (Homo sapiens, UniProt P07948)
T34 construct: purchased Millipore, Inc. (KinaseProfiler service)
Experimental: as §1

Rsk2 = biological target: T35, Rsk2 (Homo sapiens, UniProt P51812)
T35 construct: purchased Millipore, Inc. (KinaseProfiler service)
Experimental: as §1

IRAK4 = biological target: T36, IRAK4 (Homo sapiens, UniProt Q9NWZ3)
T36 construct: purchased Millipore, Inc. (KinaseProfiler service)
Experimental: as §1

Rsk1 = biological target: T37, Rsk1 (Homo sapiens, UniProt Q15418)
T37 construct: purchased Millipore, Inc. (KinaseProfiler service)
Experimental: as §1

AURKA = biological target: T38, AURKA (Homo sapiens, UniProt O14965)
T38 construct: purchased Millipore (KinaseProfiler service)
Experimental: as §1

ULK3 = biological target: T39, ULK3 (Homo sapiens, UniProt Q6PHR2)
T39 construct: purchased Millipore, Inc. (KinaseProfiler service)
Experimental: as §1

DMPK = biological target: T40, DMPK (Homo sapiens, UniProt Q09013)
T40 construct: purchased Millipore, Inc. (KinaseProfiler service)
Experimental: as §1

T1 sequence (P42345 1362-2549 limits assumed): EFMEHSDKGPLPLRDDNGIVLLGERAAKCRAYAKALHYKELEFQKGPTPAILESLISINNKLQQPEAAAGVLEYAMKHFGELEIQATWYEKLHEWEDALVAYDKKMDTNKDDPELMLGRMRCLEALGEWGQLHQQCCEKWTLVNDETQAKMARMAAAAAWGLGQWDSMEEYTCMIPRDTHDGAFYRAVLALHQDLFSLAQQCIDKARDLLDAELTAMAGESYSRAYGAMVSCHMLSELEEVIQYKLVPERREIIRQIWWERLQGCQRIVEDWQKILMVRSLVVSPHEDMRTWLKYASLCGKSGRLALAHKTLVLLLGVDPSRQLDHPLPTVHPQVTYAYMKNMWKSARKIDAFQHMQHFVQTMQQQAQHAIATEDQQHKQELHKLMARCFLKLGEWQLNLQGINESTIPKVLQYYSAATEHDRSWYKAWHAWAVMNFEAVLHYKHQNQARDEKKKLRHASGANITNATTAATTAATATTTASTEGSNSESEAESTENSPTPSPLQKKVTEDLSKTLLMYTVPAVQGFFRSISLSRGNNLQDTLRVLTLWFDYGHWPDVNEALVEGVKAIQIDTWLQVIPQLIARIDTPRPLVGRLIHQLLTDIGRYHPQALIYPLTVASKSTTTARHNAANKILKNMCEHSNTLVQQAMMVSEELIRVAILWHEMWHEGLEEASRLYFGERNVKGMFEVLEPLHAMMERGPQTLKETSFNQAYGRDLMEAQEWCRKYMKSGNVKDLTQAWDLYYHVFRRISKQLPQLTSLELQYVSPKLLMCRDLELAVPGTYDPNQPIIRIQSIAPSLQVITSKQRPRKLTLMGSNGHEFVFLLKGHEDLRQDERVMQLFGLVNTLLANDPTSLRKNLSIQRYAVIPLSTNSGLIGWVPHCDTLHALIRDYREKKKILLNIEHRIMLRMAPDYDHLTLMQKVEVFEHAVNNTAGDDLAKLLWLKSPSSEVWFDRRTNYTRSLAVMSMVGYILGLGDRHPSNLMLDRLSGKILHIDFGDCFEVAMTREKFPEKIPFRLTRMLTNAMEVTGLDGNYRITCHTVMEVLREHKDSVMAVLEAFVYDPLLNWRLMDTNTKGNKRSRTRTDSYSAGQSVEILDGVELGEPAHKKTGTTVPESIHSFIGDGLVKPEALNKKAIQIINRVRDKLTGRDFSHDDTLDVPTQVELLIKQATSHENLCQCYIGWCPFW
T28 sequence (P36896 24-505): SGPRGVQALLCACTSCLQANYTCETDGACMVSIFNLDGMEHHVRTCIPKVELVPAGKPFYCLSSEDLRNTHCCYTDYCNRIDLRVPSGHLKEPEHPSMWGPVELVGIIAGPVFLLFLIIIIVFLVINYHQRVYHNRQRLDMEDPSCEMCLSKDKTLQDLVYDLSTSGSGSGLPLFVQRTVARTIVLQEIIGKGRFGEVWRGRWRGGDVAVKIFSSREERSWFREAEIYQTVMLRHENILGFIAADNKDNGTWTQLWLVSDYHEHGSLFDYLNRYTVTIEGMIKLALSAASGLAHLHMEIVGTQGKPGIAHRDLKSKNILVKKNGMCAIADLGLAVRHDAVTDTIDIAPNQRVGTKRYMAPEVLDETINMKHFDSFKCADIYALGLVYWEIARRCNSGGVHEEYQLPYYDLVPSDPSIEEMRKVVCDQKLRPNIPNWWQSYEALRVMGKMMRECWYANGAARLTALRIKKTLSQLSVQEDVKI
T32 sequence (P54760 16-987): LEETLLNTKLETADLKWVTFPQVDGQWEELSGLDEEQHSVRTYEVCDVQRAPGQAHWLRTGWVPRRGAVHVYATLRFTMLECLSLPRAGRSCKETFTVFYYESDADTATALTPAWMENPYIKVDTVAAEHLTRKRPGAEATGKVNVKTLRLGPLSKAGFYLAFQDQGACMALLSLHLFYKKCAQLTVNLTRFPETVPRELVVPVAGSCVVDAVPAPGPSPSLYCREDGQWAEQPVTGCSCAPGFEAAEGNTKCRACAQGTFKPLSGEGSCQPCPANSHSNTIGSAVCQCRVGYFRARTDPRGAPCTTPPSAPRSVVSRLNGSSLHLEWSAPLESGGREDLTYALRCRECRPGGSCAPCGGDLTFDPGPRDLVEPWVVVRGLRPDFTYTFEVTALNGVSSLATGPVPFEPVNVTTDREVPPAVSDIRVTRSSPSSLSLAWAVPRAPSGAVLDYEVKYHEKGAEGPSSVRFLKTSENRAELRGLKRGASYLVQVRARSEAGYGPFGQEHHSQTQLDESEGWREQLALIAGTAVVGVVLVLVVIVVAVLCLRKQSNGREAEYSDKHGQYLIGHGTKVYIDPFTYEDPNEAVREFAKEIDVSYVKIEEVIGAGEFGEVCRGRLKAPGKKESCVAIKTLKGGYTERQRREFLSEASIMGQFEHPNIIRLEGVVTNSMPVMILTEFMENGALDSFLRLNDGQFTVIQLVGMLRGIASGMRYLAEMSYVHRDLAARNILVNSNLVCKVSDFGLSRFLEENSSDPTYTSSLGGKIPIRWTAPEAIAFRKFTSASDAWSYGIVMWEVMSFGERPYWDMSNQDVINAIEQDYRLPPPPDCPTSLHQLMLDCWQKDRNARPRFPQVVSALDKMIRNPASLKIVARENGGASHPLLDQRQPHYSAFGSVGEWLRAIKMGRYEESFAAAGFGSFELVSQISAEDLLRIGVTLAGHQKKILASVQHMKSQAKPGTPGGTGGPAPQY
T31 sequence (P07332 whole entry): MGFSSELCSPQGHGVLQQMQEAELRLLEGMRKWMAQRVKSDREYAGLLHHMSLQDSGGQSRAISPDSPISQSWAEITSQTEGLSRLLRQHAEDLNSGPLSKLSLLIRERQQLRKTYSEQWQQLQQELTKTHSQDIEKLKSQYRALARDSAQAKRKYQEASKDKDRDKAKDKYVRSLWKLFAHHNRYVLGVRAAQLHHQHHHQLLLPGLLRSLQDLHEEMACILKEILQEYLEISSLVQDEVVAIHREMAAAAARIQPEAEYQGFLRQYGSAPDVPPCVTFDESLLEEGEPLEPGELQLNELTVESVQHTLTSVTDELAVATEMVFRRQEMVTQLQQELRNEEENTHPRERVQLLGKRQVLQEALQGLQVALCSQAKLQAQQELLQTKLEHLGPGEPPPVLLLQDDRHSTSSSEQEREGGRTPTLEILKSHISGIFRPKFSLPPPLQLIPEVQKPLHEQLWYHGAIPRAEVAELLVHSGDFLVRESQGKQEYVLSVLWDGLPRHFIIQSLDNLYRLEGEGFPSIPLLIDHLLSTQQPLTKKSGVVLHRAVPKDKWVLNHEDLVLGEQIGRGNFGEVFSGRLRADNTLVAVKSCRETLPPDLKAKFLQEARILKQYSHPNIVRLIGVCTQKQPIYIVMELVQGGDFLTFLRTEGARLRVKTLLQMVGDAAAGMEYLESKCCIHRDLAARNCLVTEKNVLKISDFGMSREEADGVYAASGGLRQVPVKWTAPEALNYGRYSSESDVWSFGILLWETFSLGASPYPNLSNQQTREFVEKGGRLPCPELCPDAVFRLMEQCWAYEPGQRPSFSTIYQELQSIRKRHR
T27 sequence (Q13555 whole entry): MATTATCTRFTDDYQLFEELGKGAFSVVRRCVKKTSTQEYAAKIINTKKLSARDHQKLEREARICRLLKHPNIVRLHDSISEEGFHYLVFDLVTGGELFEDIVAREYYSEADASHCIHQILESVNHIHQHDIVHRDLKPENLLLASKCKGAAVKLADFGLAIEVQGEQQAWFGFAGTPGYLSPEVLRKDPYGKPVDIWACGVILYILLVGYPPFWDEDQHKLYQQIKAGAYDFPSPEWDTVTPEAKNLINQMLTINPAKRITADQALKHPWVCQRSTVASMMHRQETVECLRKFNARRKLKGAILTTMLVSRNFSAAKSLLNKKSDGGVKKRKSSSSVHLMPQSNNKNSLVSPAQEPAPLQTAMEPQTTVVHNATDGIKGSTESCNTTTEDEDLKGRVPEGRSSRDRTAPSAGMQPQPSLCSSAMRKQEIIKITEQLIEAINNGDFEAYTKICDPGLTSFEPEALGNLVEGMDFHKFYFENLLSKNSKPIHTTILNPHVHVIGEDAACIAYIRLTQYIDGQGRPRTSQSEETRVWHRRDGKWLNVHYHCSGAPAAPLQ
T26 sequence (Q9BYT3 whole entry): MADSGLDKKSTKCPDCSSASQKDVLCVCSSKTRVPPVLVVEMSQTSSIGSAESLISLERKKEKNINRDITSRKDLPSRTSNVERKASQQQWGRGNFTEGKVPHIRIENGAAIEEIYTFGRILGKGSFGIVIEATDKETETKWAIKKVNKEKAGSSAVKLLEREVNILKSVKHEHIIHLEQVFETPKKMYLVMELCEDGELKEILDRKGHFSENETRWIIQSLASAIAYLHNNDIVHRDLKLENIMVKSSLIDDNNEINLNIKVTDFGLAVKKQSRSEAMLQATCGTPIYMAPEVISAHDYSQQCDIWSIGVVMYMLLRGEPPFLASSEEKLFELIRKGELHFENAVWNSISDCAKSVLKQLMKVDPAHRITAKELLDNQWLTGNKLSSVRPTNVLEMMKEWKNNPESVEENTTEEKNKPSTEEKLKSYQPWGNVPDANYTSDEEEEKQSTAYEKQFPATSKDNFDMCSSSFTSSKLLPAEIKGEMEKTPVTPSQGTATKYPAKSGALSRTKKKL
T17 sequence (P52564 whole entry): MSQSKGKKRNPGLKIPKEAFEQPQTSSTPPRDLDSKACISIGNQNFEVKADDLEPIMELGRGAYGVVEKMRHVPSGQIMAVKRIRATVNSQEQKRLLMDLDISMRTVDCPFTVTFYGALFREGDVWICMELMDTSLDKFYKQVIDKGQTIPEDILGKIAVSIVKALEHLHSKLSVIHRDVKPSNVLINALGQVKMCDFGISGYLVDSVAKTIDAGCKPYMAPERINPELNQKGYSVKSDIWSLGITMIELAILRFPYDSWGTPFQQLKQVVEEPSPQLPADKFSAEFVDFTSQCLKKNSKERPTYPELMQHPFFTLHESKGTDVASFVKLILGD

Compound: COCCCc1cc(Cl)c(Cl)cc1NC(=O)Nc1c(C)c(-c2cnn(C)c2)nn1-c1ccccc1 [Example 15, 1-(4,5-dichloro-2-(3-methoxypropyl)phenyl)-3-(1′,4-dimethyl-1-phenyl-1H,1′H-[3,4′-bipyrazol]-5-yl)urea]
- Avg POC (mTOR/FKBP12): 97.5 POC
- Avg POC (NEK2): 88.5 POC
- Avg POC (p38alpha): 100.5 POC
- Avg POC (TSSK2): 114.5 POC
- Avg POC (CK1gamma1): 99.5 POC
- Avg POC (HIPK3): 101 POC
- Avg POC (PAK2): 101.5 POC
- Avg POC (Plk1): 89.5 POC
- Avg POC (Pim-2): 142.5 POC
- Avg POC (EphA3): 117 POC
- Avg POC (CDK5/p35): 110 POC
- Avg POC (DAPK1): 121.5 POC
- Avg POC (p70S6K): 130.5 POC
- Avg POC (WNK2): 122.5 POC
- Avg POC (ULK2): 95 POC
- Avg POC (CDK3/cyclinE): 101 POC
- Avg POC (MKK6): 124.5 POC
- Avg POC (DAPK3): 106 POC
- Avg POC (CLK3): 105 POC
- Avg POC (IRAK1): 103 POC
- Avg POC (KDR): 136 POC
- Avg POC (TAO1): 113 POC
- Avg POC (IKKbeta): 113.5 POC
- Avg POC (GSK3beta): 114.5 POC
- Avg POC (Tie2): 160.5 POC
- Avg POC (STK33): 104.5 POC
- Avg POC (CAMK2g): 103 POC
- Avg POC (ALK4): 113 POC
- Avg POC (HIPK1): 118 POC
- Avg POC (PAK6): 148 POC
- Avg POC (Fes): 110 POC
- Avg POC (EphB4): 132.5 POC
- Avg POC (CDK7/cyclinH/MAT1): 106 POC
- Avg POC (Lyn): 84.5 POC
- Avg POC (Rsk2): 136.5 POC
- Avg POC (IRAK4): 124.5 POC
- Avg POC (Rsk1): 118 POC
- Avg POC (AURKA): 113.5 POC
- Avg POC (ULK3): 92.5 POC
- Avg POC (DMPK): 108.5 POC

Reference: patent US9790210B2, “N-(monocyclic aryl),N'-pyrazolyl-urea, thiourea, guanidine and cyanoguanidine compounds as TrkA kinase inhibitors” (Array BioPharma Inc., priority 2012, dated 2017)
